Results on 75 compounds are retold here after a melting point compilation (Tetko et al.).

On to `CC1CC2C(C(O)CC3(C)C2CCC3(O)C(=O)CO)C2(C)C=CC(=O)C=C12` (stereo not given), for which the melting point is 233 °C.
As for `CCCCC(CC)CC`, the melting point is -115 °C.
Take `CCN(CC)CCOC(=O)c1ccc(N)cc1`: the melting point was 61 °C.
As to `CN(C)c1cccc2oc3c(cnn3-c3ccccc3)c(=O)c12`, the melting point was in the range of 184 to 186 °C.
As for `OCc1cccnc1N1CCOCC1`, the melting point is 80 to 83 °C.
On to `CCc1cccc(C)c1N(C(=O)CCl)C(C)COC` (stereo not given), for which the melting point is -40 °C.
Consider `OCC(CO)(CBr)CBr`, for which the melting point turned out to be 113 °C.
`O=C(O)C#CC(=O)O`: the melting point is 180 to 187 °C.
As for `Oc1c2cccc1Cc1cccc(c1O)Cc1cccc(c1O)Cc1cccc(c1O)C2`, the melting point is 317 °C.
Then `CCOCN(C(=O)CCl)c1c(C)cccc1CC`, with 10.6 °C.
`CC(=O)OCCC(C)C`: the melting point is -78.5 °C.
`OCc1snnc1-c1ccccc1` showed a melting point of 116 to 118 °C.
On to `CCCc1ccc(O)cc1O`, for which the melting point worked out at 82.5 °C.
Next, `C[C@]12CC[C@H]3[C@@H](CCC4CC(=O)CC[C@@]43C)C1=CCC2=O` (stereo not given in full): 151 °C; `Cn1cc(I)cn1`: 61 to 67 °C.
The compound `c1ccc2c(c1)ccc1nc3c(ccc4ccccc43)cc12` registered a melting point of 226 °C.
With `O=[N+]([O-])c1ccc(C=Cc2cccc(/C=C\c3ccc([N+](=O)[O-])cc3[N+](=O)[O-])c2)c([N+](=O)[O-])c1`, the melting point stood at 243 °C.
In turn, `CC(C)c1ccc(C=CC(=O)O)cc1` gave a melting point of 157 to 161 °C.
With `O=C(Cc1ccccc1)CC(c1ccco1)N1CCCCC1` (stereo not given), the melting point was found to be 130 °C.
Regarding `CCF`, the melting point was -143 °C.
Then `CC12CCC(=O)C=C1CCC1C2CCC2(C)C(OC(=O)CCC3CCCC3)CCC12` (stereo not given), with 155 °C.
Turning to `CC(C)Oc1ccc(C(=O)NS(=O)(=O)c2ccc(N)cc2)cc1`, the melting point is 172 °C.
`Cc1nc(-c2ccc(C(F)(F)F)cc2)sc1CO` showed a melting point of 119 to 122 °C.
Next, `O=C1CC(c2ccccc2)Oc2ccc(O)cc21` (stereo not given): 220 to 222 °C; `C(#CP(c1ccccc1)c1ccccc1)P(c1ccccc1)c1ccccc1`: 86 °C.
`Cn1c(=O)c(C2=NNC(=O)C2=CNc2nccs2)c(O)c2ccccc21`: the melting point came out at 248 °C.
On to `CSc1ncnc2c1cnn2-c1ccccc1`, for which the melting point lay within 115 to 117 °C.
Then `O=[N+]([O-])c1ccc(-c2nc3n(c2[N+](=O)[O-])CCS3)cc1`, with 203 to 205 °C.
In the case of `CC(C)=CCCC(C)=CC=CC(C)=CC=CC(C)=CC=CC=C(C)C=CC=C(C)C=CC1C(C)=CCCC1(C)C` (stereo not given), the melting point turned out to be 140 °C.
For `O=C(c1ccncc1)N1N=C(c2ccccc2)CC1c1cn(-c2ccccc2)nc1-c1ccccc1` (stereo not given), the melting point was 224 to 226 °C.
As for `O=C(CBr)c1ccc2ccccc2c1`, the melting point fell in the range of 82 to 85 °C.
Turning to `O=C1C2CC3CC(C2)CC1C3`, the melting point was determined as 286 °C.
With `CCOC(=O)c1c(C)oc(NC(=O)Nc2cccc(C(F)(F)F)c2)c1C(=O)OCC`, the melting point lay within 153 to 155 °C.
`O=C(O)C1C2CC3(OCCO3)C1CC2Cl` (stereo not given) came in with a melting point of 164 to 166 °C.
Then `CC1=C[C@H](O)[C@H]2C[C@@H]1C2(C)C`, with 70.8 °C; and `O=C(CCl)Oc1ccccc1`, with 44.5 °C.
`Cc1ccc(NC(=O)C(C(F)(F)F)C(F)(F)F)cc1C` came in with a melting point of 189 °C.
`CC(=O)OC1C2=C(C(=O)C(O)C3(CC3C)C2=O)C2(C)CCC(C)=C(C)C2C1O` (stereo not given) came in with a melting point of 177 to 178 °C.
Next, `CCN(CC)CC(=O)Nc1c(C)cc(C)cc1C`: 44 °C; `NC(=O)/C(=N\Nc1cc(Cl)c(Cl)cc1Cl)c1nc2ccccc2s1`: 236 °C; `O=C(CCl)c1ccc(Cl)c(Cl)c1`: 44 °C.
In turn, `CC(C)(C)OC(=O)N1CCN(c2ccccc2N)CC1` came in with a melting point of 120 to 122 °C.
The compound `CC(CCC(=O)O)C1CCC2C3CCC4CCCCC4(C)C3CCC12C` (stereo not given) gave a melting point of 164 °C.
Regarding `CC1(C)C(C=C2CCSC2=O)C1C(=O)OCc1coc(Cc2ccccc2)c1` (stereo not given), the melting point is 31 °C.
For `CC(=O)N(C)c1ccc(N)cc1`, the melting point lay within 70 to 71 °C.
`CC(=O)OC1CCC2(C)C3CCC4=C(CCC4(C)C(C)OC(C)=O)C3CCC2(C)C1` (stereo not given) returned a melting point of 117 to 119 °C.
As for `CCOC(=O)c1c(N)sc(C)c1-c1ccccc1`, the melting point lay in the range of 92 to 93 °C.
Regarding `CC(C)C(C)(C)[Si](C)(C)Cl`, the melting point was 15 °C.
Turning to `Cc1cc2c(o1)-c1c(oc3c(I)cc(I)cc13)CCC2(C)c1ccccc1` (stereo not given), the melting point came out at 175 °C.
Next, `CC1=C(C(N)=O)C(c2ccccc2)NC(=O)N1` (stereo not given): 260 to 262 °C; `COc1cc(Br)c(C=CC(=O)O)cc1OC`: 253 to 259 °C; `CCCCCCCc1ccc(NC(=O)c2ccc(CC)cc2)cc1`: 102 °C.
With `CC(CO)c1c(O)c(O)c2c(c1O)C(=O)C(=O)C1C2(C)CCC(O)C1(C)C` (stereo not given), the melting point lay in the range of 214 to 216 °C.
`CCCC(=O)OCN1C(=O)NC(c2ccccc2)(c2ccccc2)C1=O` registered a melting point of 131 °C.
In turn, `Cc1cc(C)c(C2(C)CC(C(=NO)c3cc4cc(Br)ccc4o3)C2)c(C)c1` (stereo not given) showed a melting point of 221 to 222 °C.
On to `CSc1c(C#N)c(N)nc2c(/N=N/c3cccc(C(F)(F)F)c3)c(N)nn12`, for which the melting point was found to be 293 °C.
Then `CCOC(=O)c1sc(SC)c2c1CCCC2O` (stereo not given), with 119 to 122 °C; and `CC(=O)c1nn(-c2cccc(C)c2C)c(=N)s1`, with 170 °C.
Compound `Nc1ccccc1CO` showed a melting point of 83.5 °C.
Take `O=S(=O)(O)c1ccc2ccc(S(=O)(=O)O)cc2c1`: the melting point was 199 °C.
As for `CCCC=NO`, the melting point is -29.5 °C.
Turning to `N#Cc1c(N)cccc1Cl`, the melting point lay within 135 to 137 °C.
Then `CCCCCCCCCCCCCCCCCCCCCCCCCCCCCCCCCC`, with 72.6 °C; and `c1ccc(-n2nc3ccccc3n2)cc1`, with 107 °C; and `Cc1ccc(O)c(N)c1`, with 136 °C.
`NCCOc1ccccc1Cl` returned a melting point of 40 °C.
In turn, `N#CCN(CC#N)CC#N` came in with a melting point of 126 °C.
Consider `N#C/C(=N/Nc1ccc(Cl)cc1)c1nc(-c2ccc(Cl)cc2)cs1`, for which the melting point came to 240 °C.
With `O=C(O)c1cccc(-n2cncn2)c1`, the melting point was in the range of 262 to 268 °C.
On to `CCCC(C)I` (stereo not given), for which the melting point was -50 °C.
Next, `CC(C)(OC1CCCCC1)C(=O)O`: 75 °C.
The compound `C(C#CCOc1ccccc1)#CCOc1ccccc1` returned a melting point of 82 °C.
The compound `CCc1ccccc1NC(=O)c1cccc2ccccc12` returned a melting point of 175 °C.
In turn, `Cc1ccc(/N=N/c2c(N)nn3c(C(F)(F)F)cc(C)nc23)c(C)c1` returned a melting point of 220 °C.
With `OCC(CO)(CO)COCC(CO)(CO)COCC(CO)(CO)CO`, the melting point came out at 249 °C.

For orientation: melting point means the temperature of the solid-liquid transition.
